From patent US6355799B1, “Substituted benzene compounds, process for their preparation, and herbicidal and defoliant compositions containing them” (ISK Americas Incorporated, priority 1997, dated 2002)

Legend:
Format in all cases: in vivo
[1] = tested on: velvetleaf (Abutilon theophrasti, ABUTH); assay: Pre-emerge test, greenhouse herbicide activity screening; conditions: phytotoxicity rating 0-100, 14 days after application
Procedure, shortened: (§1)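 Compounds in acetone were track-sprayed at 15–1000 g ai/ha: pre-emergence onto soil sown the previous day, then top-watered to incorporate and later bottom-watered; post-emergence onto 2–3 leaf plants with 0.25% v/v surfactant, bottom-watered only. Ratings on a 0–100 phytotoxicity scale were taken at day 14.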

[2] = tested on: lambsquarters (Chenopodium album, CHEAL); assay: as above; conditions: phytotoxicity rating 0-100, 14 days after application
Procedure, shortened: as §1

[3] = tested on: johnsongrass (Sorghum halepense, SORHA); assay: as above; conditions: phytotoxicity rating 0-100, 14 days after application
Procedure, shortened: as §1

[4] = tested on: large crabgrass (Digitaria sanguinalis, DIGSA); assay: as above; conditions: phytotoxicity rating 0-100, 14 days after application
Procedure, shortened: as §1

[5] = tested on: barnyardgrass (Echinochloa crus-galli, ECHCG); assay: as above; conditions: phytotoxicity rating 0-100, 14 days after application
Procedure, shortened: as §1

[6] = tested on: green foxtail (Setaria viridis, SETVI); assay: as above; conditions: phytotoxicity rating 0-100, 14 days after application
Procedure, shortened: as §1

[7] = tested on: sicklepod (Cassia obtusifolia, CASOB); assay: as above; conditions: phytotoxicity rating 0-100, 14 days after application
Procedure, shortened: as §1

[8] = tested on: ivyleaf morningglory (Ipomoea hederacea, IPOHE); assay: as above; conditions: phytotoxicity rating 0-100, 14 days after application
Procedure, shortened: as §1

[9] = tested on: field corn (Zea mays L., var. Dekalb 535, CORN); assay: Post-emerge test, crop safety; conditions: post-emerge, 14 days after application, rating scale 0-100
Procedure, shortened: (§2)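 Rating: 0–100 visual injury, 14 DAA. Application: acetone, 187 l/ha, 15–1000 g ai/ha, flat-fan track sprayer with nozzle 40–45 cm above soil or canopy. Post-emerge runs used 0.25% v/v surfactant on 2–3 leaf plants.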

[10] = tested on: upland rice (Oryza sp., var. Tebonnet, RICE); assay: Post-emerge test, crop safety; conditions: post-emerge, 14 days after application, rating scale 0-100
Procedure, shortened: as §2

[11] = tested on: field corn (Zea mays L., var. Dekalb 535, CORN); assay: Pre-emerge test, crop safety; conditions: crop damage rating 0-100, 14 days after application
Procedure, shortened: (§3)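 Visual ratings on a 0-100 scale (0 no damage, 100 all plants dead) were taken at 14 days after treatment. Rates of 15-1000 g ai/ha in acetone, 187 l/ha, were sprayed onto soil one day after planting (pre-emerge) or onto 2-3 leaf plants with 0.25% v/v surfactant (post-emerge).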

[12] = tested on: upland rice (Oryza sp., var. Tebonnet, RICE); assay: Pre-emerge test, crop safety; conditions: crop damage rating 0-100, 14 days after application
Procedure, shortened: as §3

[13] = tested on: velvetleaf (Abutilon theophrasti, ABUTH); assay: Post-emerge test, greenhouse herbicide activity screening; conditions: post-emerge, 14 days after application, rating scale 0-100
Procedure, shortened: (§4)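 Plants grown in 10 cm pots of sandy loam mix received acetone-dissolved compounds through a moving flat-fan nozzle. Doses ranged from 15 to 1000 g ai/ha. Pre-emerge pots were seeded one day earlier, post-emerge pots 8–21 days earlier. Fourteen days on, each pot was graded 0–100 for damage.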

[14] = tested on: lambsquarters (Chenopodium album, CHEAL); assay: as above; conditions: post-emerge, 14 days after application, rating scale 0-100
Procedure, shortened: as §4

[15] = tested on: johnsongrass (Sorghum halepense, SORHA); assay: as above; conditions: post-emerge, 14 days after application, rating scale 0-100
Procedure, shortened: as §4

[16] = tested on: large crabgrass (Digitaria sanguinalis, DIGSA); assay: as above; conditions: post-emerge, 14 days after application, rating scale 0-100
Procedure, shortened: as §4

[17] = tested on: barnyardgrass (Echinochloa crus-galli, ECHCG); assay: as above; conditions: post-emerge, 14 days after application, rating scale 0-100
Procedure, shortened: as §4

[18] = tested on: green foxtail (Setaria viridis, SETVI); assay: as above; conditions: post-emerge, 14 days after application, rating scale 0-100
Procedure, shortened: as §4

[19] = tested on: redroot pigweed (Amaranthus retroflexus, AMARE); assay: as above; conditions: post-emerge, 14 days after application
Procedure, shortened: as §4

[20] = tested on: sicklepod (Cassia obtusifolia, CASOB); assay: as above; conditions: post-emerge, 14 days after application, rating scale 0-100
Procedure, shortened: as §4

[21] = tested on: ivyleaf morningglory (Ipomoea hederacea, IPOHE); assay: as above; conditions: post-emerge, 14 days after application, rating scale 0-100
Procedure, shortened: as §4

[22] = tested on: redroot pigweed (Amaranthus retroflexus, AMARE); assay: Pre-emerge test, greenhouse herbicide activity screening; conditions: phytotoxicity rating 0-100, 14 days after application
Procedure, shortened: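 Compounds in acetone were track-sprayed at 187 l/ha, 15–1000 g ai/ha, onto sandy loam pots. Pre-emerge seeds were sown one day before spraying, with surface watering afterwards. Post-emerge plants were at the 2–3 leaf stage and sprayed with 0.25% v/v non-ionic surfactant. Injury was rated 0–100 at 14 days.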

Question: How did the “Pre-emerge Herbicidal Activity ABUTH” value ([1]; 63 g ai/ha) turn out when `COc1c(Cl)cc(F)c(-n2c(=O)cc(C(F)(F)F)n(C)c2=O)c1NC(=O)OCc1ccc(C)c(C)c1` [4-26] was run?
Answer: 80

Question: What about the “Pre-emerge Herbicidal Activity ABUTH” value ([1]; 250 g ai/ha) of the same molecule?
Answer: 100

Question: And the “Pre-emerge Herbicidal Activity CHEAL” value ([2]; 63 g ai/ha)?
Answer: 100

Question: What about the “Pre-emerge Herbicidal Activity CHEAL” value ([2]; 250 g ai/ha) of the same molecule?
Answer: 100

Question: And the “Pre-emerge Herbicidal Activity SORHA” value ([3]; 63 g ai/ha)?
Answer: 0

Question: What about the “Pre-emerge Herbicidal Activity SORHA” value ([3]; 250 g ai/ha) of the same molecule?
Answer: 20

Question: What about the “Pre-emerge Herbicidal Activity DIGSA” value ([4]; 63 g ai/ha) of the same molecule?
Answer: 10

Question: What about the “Pre-emerge Herbicidal Activity DIGSA” value ([4]; 250 g ai/ha) of the same molecule?
Answer: 90

Question: What about the “Pre-emerge Herbicidal Activity ECHCG” value ([5]; 63 g ai/ha) of the same molecule?
Answer: 0

Question: What about the “Pre-emerge Herbicidal Activity ECHCG” value ([5]; 250 g ai/ha) of the same molecule?
Answer: 30

Question: What about the “Pre-emerge Herbicidal Activity SETVI” value ([6]; 63 g ai/ha) of the same molecule?
Answer: 75

Question: And the “Pre-emerge Herbicidal Activity SETVI” value ([6]; 250 g ai/ha)?
Answer: 95

Question: What about the “Pre-emerge Herbicidal Activity CASOB” value ([7]; 63 g ai/ha) of the same molecule?
Answer: 0

Question: And the “Pre-emerge Herbicidal Activity CASOB” value ([7]; 250 g ai/ha)?
Answer: 0

Question: And the “Pre-emerge Herbicidal Activity IPOHE” value ([8]; 63 g ai/ha)?
Answer: 0

Question: And the “Pre-emerge Herbicidal Activity IPOHE” value ([8]; 250 g ai/ha)?
Answer: 10

Question: And the “phytotoxicity rating CORN (crop damage)” value ([9]; 63 g ai/ha)?
Answer: 5

Question: And the “phytotoxicity rating CORN (crop damage)” value ([9]; 250 g ai/ha)?
Answer: 20

Question: And the “phytotoxicity rating RICE (crop damage)” value ([10]; 63 g ai/ha)?
Answer: 15

Question: What about the “phytotoxicity rating RICE (crop damage)” value ([10]; 250 g ai/ha) of the same molecule?
Answer: 45

Question: What about the “Pre-emerge Herbicidal Activity CORN” value ([11]; 63 g ai/ha) of the same molecule?
Answer: 0

Question: What about the “Pre-emerge Herbicidal Activity CORN” value ([11]; 250 g ai/ha) of the same molecule?
Answer: 0

Question: What about the “Pre-emerge Herbicidal Activity RICE” value ([12]; 63 g ai/ha) of the same molecule?
Answer: 0

Question: What about the “Pre-emerge Herbicidal Activity RICE” value ([12]; 250 g ai/ha) of the same molecule?
Answer: 45

Question: And the “phytotoxicity rating ABUTH” value ([13]; 63 g ai/ha)?
Answer: 100

Question: And the “phytotoxicity rating ABUTH” value ([13]; 250 g ai/ha)?
Answer: 100

Question: What about the “phytotoxicity rating CHEAL” value ([14]; 63 g ai/ha) of the same molecule?
Answer: 90

Question: What about the “phytotoxicity rating CHEAL” value ([14]; 250 g ai/ha) of the same molecule?
Answer: 100

Question: What about the “phytotoxicity rating SORHA” value ([15]; 63 g ai/ha) of the same molecule?
Answer: 10

Question: And the “phytotoxicity rating SORHA” value ([15]; 250 g ai/ha)?
Answer: 50

Question: And the “phytotoxicity rating DIGSA” value ([16]; 63 g ai/ha)?
Answer: 20

Question: And the “phytotoxicity rating DIGSA” value ([16]; 250 g ai/ha)?
Answer: 50

Question: And the “phytotoxicity rating ECHCG” value ([17]; 63 g ai/ha)?
Answer: 10

Question: And the “phytotoxicity rating ECHCG” value ([17]; 250 g ai/ha)?
Answer: 50

Question: What about the “phytotoxicity rating SETVI” value ([18]; 63 g ai/ha) of the same molecule?
Answer: 20

Question: And the “phytotoxicity rating SETVI” value ([18]; 250 g ai/ha)?
Answer: 60

Question: And the “phytotoxicity rating AMARE” value ([19]; 63 g ai/ha, rating scale 0-100 (0 no damage, 100 complete death))?
Answer: 100

Question: And the “phytotoxicity rating AMARE” value ([19]; 250 g ai/ha, rating scale 0-100)?
Answer: 100

Question: And the “phytotoxicity rating CASOB” value ([20]; 63 g ai/ha)?
Answer: 30

Question: And the “phytotoxicity rating CASOB” value ([20]; 250 g ai/ha)?
Answer: 60

Question: And the “phytotoxicity rating IPOHE” value ([21]; 63 g ai/ha)?
Answer: 100

Question: What about the “phytotoxicity rating IPOHE” value ([21]; 250 g ai/ha) of the same molecule?
Answer: 100

Question: And the “Pre-emerge Herbicidal Activity AMARE” value ([22]; 63 g ai/ha)?
Answer: 70

Question: And the “Pre-emerge Herbicidal Activity AMARE” value ([22]; 250 g ai/ha)?
Answer: 100
